Assay results taken from patent US20210247386A1, “A DEVICE AND METHOD FOR DETERMINING CELL INDENTATION ACTIVITY” (TECHNION RESEARCH & DEVELOPMENT FOUNDATION LIMITED, priority 2018, published 2021).
“Also recorded” adds a separate entry of the source.

Experiments:
[1] = system: breast cancer cell lines; test: Gel indentation assay of breast cancer cell lines on PAM gel after Taxol treatment; assay type: cell-based, human; settings: Taxol 25 μM for 1-2 hr, PAM gel with Young's modulus 2.4 kPa, versus untreated cells
From the text: (§1) The inventors used various commercially- or otherwise-available, human, epithelial breast and pancreatic cancer and benign cell lines (all from ATCC, Manassas, Va.). For breast cancer cells, the inventors used three cell lines: high metastatic potential (MP, MDA-MB-231) and low MP (MDA-MB-468) breast cancer cells that had been collected from lung metastases, and benign fibrocystic cells (MCF-10A) as control. In addition, the inventors used a high MP breast cancer LM2-4 cell-line that was developed by collecting twice metastasized cells from the human MDA-MB-231 cell line after being seeded in mice. […]
(§2) The inventors seeded 3×10^5 cells on each gel within the respective media, resulting in an average of 25±5 cells per field-of-view (area of 0.016 mm^2). […] The focal depth of each image was recorded independently during the experiment, following manual focusing, using an automated, computer-controlled microscope stage. […]
(§3) At each measurement time-point, locations on the gel were randomly chosen and at least 3 images were taken: (i) a DIC image of the cells on the gel, (ii) a fluorescence image of the particles embedded at the focal plane of the gel surface, and (iii) a series of fluorescence images at the lowest focal depth where particles were observed, to identify each indenting cells' depth. […]

[2] = system: pancreatic cancer cell lines; test: Gel indentation assay of pancreatic cancer cell lines on PAM gel after Taxol treatment; assay type: cell-based, human; settings: Taxol 25 μM for 1-2 hr, PAM gel with Young's modulus 2.4 kPa, versus untreated cells
From the text: as §1, §2, §3

CC(=O)O[C@H]1C(=O)[C@@]2(C)[C@H]([C@H](OC(=O)c3ccccc3)[C@]3(O)C[C@H](OC(=O)[C@H](O)[C@@H](NC(=O)c4ccccc4)c4ccccc4)C(C)=C1C3(C)C)[C@]1(OC(C)=O)CO[C@@H]1C[C@@H]2O [Taxol, Paclitaxel]
reduction; also recorded: reduced: attained indentation depths [1] | percentage of indenting cells [1] | attained indentation depths [2] | percentage of indenting cells [2]
